Literature values, collected in patent US20110230399A1, “Methods for Treating Obesity Related Disease” (priority 2008, published 2011).

How the values were obtained:
hypothalamic slices = conditions: in vitro
[1] = in vivo

NPY13-36: Neuropeptide Y fragment 13-36; full agonist at the Y2 receptor
NPY release from hypothalamic slices (hypothalamic slices): inhibits NPY release
stimulation of food intake [1]: does not stimulate food intake
